# Molecular target: T1, Human HPK1, catalytic domain (Homo sapiens, UniProt Q92918)
# T1 sequence (Q92918 1-346): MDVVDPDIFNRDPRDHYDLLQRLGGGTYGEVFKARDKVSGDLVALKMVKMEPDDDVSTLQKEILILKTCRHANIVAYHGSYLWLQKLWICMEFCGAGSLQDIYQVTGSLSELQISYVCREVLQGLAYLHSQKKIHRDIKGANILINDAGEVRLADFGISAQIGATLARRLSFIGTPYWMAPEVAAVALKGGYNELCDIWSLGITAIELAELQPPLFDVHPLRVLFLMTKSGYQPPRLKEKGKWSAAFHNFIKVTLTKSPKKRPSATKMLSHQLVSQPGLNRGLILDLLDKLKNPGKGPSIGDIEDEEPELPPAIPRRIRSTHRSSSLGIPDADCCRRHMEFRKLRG
# Assay: HPK1-SLP76 TR-FRET Assay
# Format: biochemical
# Settings: 75 pM HPK1, ATP 10 uM, SLP76 10 nM, 30 min pre-incubation, 60 min reaction
row,SMILES,IC50 [nM]
1,"COc1cc2c(cc1Nc1ncc3ccc(-c4cccc(CN5CCCCC5)c4)cc3n1)CNCC2 [Compound 1-69, N-(6-methoxy-1,2,3,4-tetrahydroisoquinolin-7-yl)-7-{3-[(piperidin-1-yl)methyl]phenyl}quinazolin-2-amine]",215
2,"CCN(CC)S(=O)(=O)c1cccc(-c2ccc3cnc(Nc4cc5c(cc4OC)CCNC5)nc3c2)c1 [Compound 1-80, N,N-diethyl-3-{2-[(6-methoxy-1,2,3,4-tetrahydroisoquinolin-7-yl)amino]quinazolin-7-yl}benzene-1-sulfonamide]",23.9
3,"COc1cc2c(cc1Nc1ncc3c(N)cc(-c4c(C)cccc4F)cc3n1)CN(C)CC2 [Compound 2-38, 7-(2-fluoro-6-methylphenyl)-N^2-(6-methoxy-2-methyl-1,2,3,4-tetrahydroisoquinolin-7-yl)quinazoline-2,5-diamine]",35.1
4,"COc1cc2c(cc1Nc1ncc3ccc(-c4cccc(CO)c4)cc3n1)CNCC2 [Compound 1-60, (3-{2-[(6-methoxy-1,2,3,4-tetrahydroisoquinolin-7-yl)amino]quinazolin-7-yl}phenyl)methanol]",20.5
5,"COc1cc2c(cc1Nc1ncc3ccc(NCC(=O)N4CCOCC4)cc3n1)CN(C)CC2 [Compound 3-64, 2-({2-[(6-methoxy-2-methyl-1,2,3,4-tetrahydroisoquinolin-7-yl)amino]quinazolin-7-yl}-amino)-1-(morpholin-4-yl)ethan-1-one]",115
6,"COc1cc2c(cc1Nc1ncc3ccc(-c4cc(C5(CO)CC5)ccc4OC)cc3n1)CNCC2 [Compound 1-74, [1-(4-methoxy-3-{2-[(6-methoxy-1,2,3,4-tetrahydroisoquinolin-7-yl)amino]quinazolin-7-yl}phenyl)cyclo-propyl]methanol]",143
7,"COc1cc2c(cc1Nc1ncc3ccc([C@H]4CC[C@H](N)CC4)cc3n1)CN(C)CC2 [Compound 5-1, 7-((1r,4r)-4-aminocyclohexyl)-N-(6-methoxy-2-methyl-1,2,3,4-tetrahydroisoquinolin-7-yl)quinazolin-2-amine]",662
8,"CCC1COC(=O)N1c1cc(N)c2cnc(Nc3cc4c(cc3OC)CCN(C)C4)nc2c1 (single isomer, unassigned) [Compound 3-16, (S or R)-3-{5-amino-2-[(6-methoxy-2-methyl-1,2,3,4-tetrahydroisoquinolin-7-yl)amino]quinazolin-7-yl}-4-ethyl-1,3-oxazolidin-2-one]",0.169
9,"COc1cc2c(cc1Nc1ncc3ccc(-c4cccc(S(=O)(=O)N5CCOCC5)c4)cc3n1)CNCC2 [Compound 1-77, N-(6-methoxy-1,2,3,4-tetrahydroisoquinolin-7-yl)-7-{3-[(morpholin-4-yl)sulfonyl]phenyl}quinazo-lin-2-amine]",24.7
10,"COc1cc2c(cc1Nc1ncc3c(N)c(F)c(-c4cnc5c(c4C)NCCO5)c(Cl)c3n1)CN(C(C)C)CC2 (single isomer, unassigned) [Compound 2-105, (+ or −)-8-chloro-6-fluoro-N2-(2-isopropyl-6-methoxy-1,2,3,4-tetrahydroisoquinolin-7-yl)-7-(8-methyl-2,3-dihydro-1H-pyrido[2,3-b][1,4]oxazin-7-yl)quinazoline-2,5-diamine]",0.0714
11,"COc1cc2c(cc1Nc1ncc3ccc(-c4cccc(N)c4C)cc3n1)CNCC2 [Compound 1-31, 7-(3-amino-2-methylphenyl)-N-(6-methoxy-1,2,3,4-tetrahydroisoquinolin-7-yl)quinazolin-2-amine]",204
12,"COc1cc2c(cc1Nc1ncc3ccc(N4CC5(CCNCC5)OC4=O)cc3n1)CN(C)CC2 [Compound 3-5, 3-{2-[(6-methoxy-2-methyl-1,2,3,4-tetrahydroisoquinolin-7-yl)amino]quinazolin-7-yl}-1-oxa-3,8-diazaspiro[4.5]decan-2-one]",205

# Results, then the compound that gave them:
row,IC50 [nM],SMILES
1,1.85,"COc1cc2c(cc1Nc1ncc3cc(Cl)c(-c4cnc5c(c4C)NCCO5)cc3n1)CN(C)CC2 [Compound 1-96, 6-chloro-N-(6-methoxy-2-methyl-1,2,3,4-tetrahydroisoquinolin-7-yl)-7-(8-methyl-2,3-dihydro-1H-pyrido[2,3-b][1,4]oxazin-7-yl)quinazolin-2-amine]"
2,0.125,"CC(=O)NC1CCc2cc(Nc3ncc4c(N)c(F)c(-c5cnc6c(c5C)NCCO6)cc4n3)ccc21 (single isomer, unassigned) [Compound 2-10, (S or R)—N-(5-((5-amino-6-fluoro-7-(8-methyl-2,3-dihydro-1H-pyrido[2,3-b][1,4]oxazin-7-yl)quinazolin-2-yl)amino)-2,3-dihydro-1H-inden-1-yl)acetamide]"
3,0.687,"Cc1c(-c2cc3nc(Nc4ccccc4F)ncc3c(N)c2F)cnc2c1NCCO2 [Compound 2-22, 6-fluoro-N~2~-(2-fluorophenyl)-7-(8-methyl-2,3-dihydro-1H-pyrido[2,3-b][1,4]oxazin-7-yl)quinazoline-2,5-diamine]"
4,0.0689,"Cc1c(-c2cc3nc(Nc4ccc(CS(=O)(=O)C(C)C)cc4)ncc3c(N)c2F)cnc2c1NCCO2 [Compound 2-157, 6-fluoro-7-(8-methyl-2,3-dihydro-1H-pyrido[2,3-b][1,4]oxazin-7-yl)-N~2~- (4-{[(propan-2-yl)sulfonyl]methyl}phenyl) quinazoline-2,5-diamine]"
5,4.62,"Cc1c(-c2cc3nc(Nc4ccccc4Cl)ncc3c(N)c2F)cnc2c1NCCO2 [Compound 2-31, N~2~-(2-chlorophenyl)-6-fluoro-7-(8-methyl-2,3-dihydro-1H-pyrido[2,3-b][1,4]oxazin-7-yl)quinazoline-2,5-diamine]"
6,323,"COC(=O)Cc1ccc(OC)c(Nc2ncc3c(N)c(F)c(-c4cnc5c(c4C)NCCO5)cc3n2)c1 [Compound 2-3, methyl (3-{[5-amino-6-fluoro-7-(8-methyl-2,3-dihydro-1H-pyrido[2,3-b][1,4]oxazin-7-yl)quinazolin-2-yl]amino}-4-methoxyphenyl)acetate]"
7,0.766,"Cc1c(-c2cc3nc(Nc4ccc5c(c4)CN(CC(C)(C)O)C5=O)ncc3cc2F)cnc2c1NCCO2 [Compound 1-111, 5-{[6-fluoro-7-(8-methyl-2,3-dihydro-1H-pyrido[2,3-b][1,4]oxazin-7-yl)quinazolin-2-yl]amino}-2-(2-hydroxy-2-methylpropyl)-2,3-dihydro-1H-isoindol-1-one]"
8,76.1,"COc1ccncc1Nc1ncc2c(N)c(F)c(-c3cnc4c(c3C)NCCO4)cc2n1 [Compound 2-20, 6-fluoro-N~2~-(4-methoxypyridin-3-yl)-7-(8-methyl-2,3-dihydro-1H-pyrido[2,3-b][1,4]oxazin-7-yl)quinazoline-2,5-diamine]"
9,100,"Cc1c(-c2cc3nc(Nc4cccc5c4CC(C)(C)N(C)C5)ncc3c(N)c2F)cnc2c1NCCO2 (single isomer, unassigned) [Compound 2-127]"
10,0.0606,"Cc1c(-c2cc3nc(Nc4ccc(C5CCN(C)C5=O)cc4)ncc3cc2F)cnc2c1NCCO2 (single isomer, unassigned) [Compound 1-125, (R or S)-3-(4-{[6-fluoro-7-(8-methyl-2,3-dihydro-1H-pyrido[2,3-b][1,4]oxazin-7-yl)quinazolin-2-yl]amino}phenyl)-1-methylpyrrolidin-2-one]"
11,0.0728,"CNC(=O)C1(c2ccc(Nc3ncc4c(N)c(F)c(-c5cnc6c(c5C)NCCO6)cc4n3)cc2)CCCCC1 [Compound 2-80, 1-(4-((5-amino-6-fluoro-7-(8-methyl-2,3-dihydro-1H-pyrido[2,3-b][1,4]oxazin-7-yl)quinazolin-2-yl)amino)phenyl)-N-methylcyclohexane-1-carboxamide]"
12,4.97,"COc1cc2c(cc1Nc1ncc3c(N)c(F)c(-c4cnc5c(c4C)NCCO5)c(Cl)c3n1)CN(C)CC21CC1 [Compound 2-169, 8-chloro-6-fluoro-N~2~- (6′-methoxy-2′-methyl-2′,3′-dihydro-1′H-spiro[cyclopropane-1,4′-isoquinolin]-7′-yl)-7-(8-methyl-2,3-dihydro-1H-pyrido[2,3-b][1,4]oxazin-7-yl)quinazoline-2,5-diamine]"
13,0.0321,"Cc1c(-c2cc3nc(Nc4ccc5c(c4)CN(C(C)C)CC5)ncc3c(N)c2F)cnc2c1NCCO2 [Compound 2-76, 6-fluoro-7-(8-methyl-2,3-dihydro-11H-pyrido[2,3-b][1,4]oxazin-7-yl)-N˜2˜-[2-(propan-2-yl)-1,2,3,4-tetrahydroisoquinolin-7-yl]quinazoline-2,5-diamine]"
14,0.051,"Cc1c(-c2cc3nc(Nc4ccc5c(c4)CN(C(C)C)CC5)ncc3c(N)c2F)cnc2c1NCC(C)O2 (single isomer, unassigned) [Compound 2-145, 7-(3,8-dimethyl-2,3-dihydro-1H-pyrido[2,3-b][1,4]oxazin-7-yl)-6-fluoro-N2-(2-isopropyl-1,2,3,4-tetrahydroisoquinolin-7-yl)quinazoline-2,5-diamine]"
15,0.696,"COc1cc2c(cc1Nc1ncc3c(N)c(F)c(-c4cnc5c(c4C)NCCO5)cc3n1)C(C)N(C)C(C)C2 (racemic) [Compound 2-48, (R,R and S,S)-6-fluoro-N~2~-(6-methoxy-1,2,3-trimethyl-1,2,3,4-tetrahydroisoquinolin-7-yl)-7-(8-methyl-2,3-dihydro-1H-pyrido[2,3-b][1,4]oxazin-7-yl)quinazoline-2,5-diamine]"
16,0.0594,"COc1cc(CS(C)(=O)=O)ccc1Nc1ncc2c(N)c(F)c(-c3cnc4c(c3C)NCCO4)cc2n1 [Compound 2-50, 6-fluoro-N2-(2-methoxy-4-((methylsulfonyl)methyl)phenyl)-7-(8-methyl-2,3-dihydro-1H-pyrido[2,3-b][1,4]oxazin-7-yl)quinazoline-2,5-diamine]"
